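Method: 48-hour compound exposure of cells in 96-well plates, five concentrations, linear interpolation of endpoints. Abbreviation: GI50, concentration required for 50% inhibition of growth.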 Calls of active or inactive are those of the source. Cut-off read from the data, not from the text of the source: active = GI50 up to about 1.1 µM and inactive = higher.
Key:
Assay in all cases: DTP human tumour cell line panel, 48 h
A498 = system: A498
EKVX = system: EKVX
HCC 2998 = system: HCC 2998
HOP-62 = system: HOP-62
HOP-92 = system: HOP-92
K562 = system: K562
M14 = system: M14
MOLT-4 = system: MOLT-4
NCI-H23 = system: NCI-H23
OVCAR-4 = system: OVCAR-4
SF-268 = system: SF-268
SF-295 = system: SF-295
SK-MEL-2 = system: SK-MEL-2
SNB-19 = system: SNB-19
SNB-75 = system: SNB-75
SW-620 = system: SW-620
U-251 = system: U-251
UO-31 = system: UO-31
DU-145 = system: DU-145
NCI/ADR-RES = system: NCI/ADR-RES

Measured: GI50

C[n+]1cn(CC(=O)c2ccccc2)c(C(N)=O)c1N
inactive: A498 > 100 µM | EKVX > 100 µM | HCC 2998 > 100 µM | HOP-62 > 100 µM | HOP-92 > 100 µM | K562 > 10 µM | M14 > 100 µM | MOLT-4 > 100 µM | NCI-H23 > 100 µM | OVCAR-4 > 100 µM | SF-268 > 100 µM | SF-295 > 100 µM | SK-MEL-2 > 100 µM | SNB-19 > 100 µM | SNB-75 > 100 µM | SW-620 11 µM | U-251 94.6 µM | UO-31 > 100 µM

CCOC(=O)NC(=S)NN(C)C1=NCC(C)(C)S1
inactive: A498 > 100 µM | DU-145 > 100 µM | EKVX > 100 µM | HOP-62 > 100 µM | HOP-92 > 100 µM | K562 > 100 µM | MOLT-4 > 100 µM | SF-295 > 100 µM | SK-MEL-2 > 100 µM | SNB-19 > 100 µM | SNB-75 > 100 µM | SW-620 > 100 µM | U-251 > 100 µM | UO-31 > 100 µM

Cc1cc(NS(=O)(=O)c2ccc(Nc3c4ccccc4nc4c(C(=O)Nc5ccc(S(=O)(=O)N=C(N)N)cc5)cccc34)cc2)no1
inactive: A498 > 100 µM | EKVX > 100 µM | HCC 2998 > 100 µM | HOP-62 > 100 µM | HOP-92 > 100 µM | K562 > 100 µM | M14 > 100 µM | MOLT-4 > 100 µM | NCI-H23 > 100 µM | OVCAR-4 > 100 µM | SF-268 > 100 µM | SF-295 > 100 µM | SK-MEL-2 > 100 µM | SNB-19 > 100 µM | SNB-75 > 100 µM | SW-620 > 100 µM | U-251 > 100 µM | UO-31 > 100 µM

Cc1ccccc1C(=O)c1cc(O)ccc1O
inactive: A498 > 100 µM | EKVX > 100 µM | HCC 2998 53.8 µM | HOP-62 > 100 µM | HOP-92 > 100 µM | K562 35 µM | M14 > 100 µM | MOLT-4 > 100 µM | NCI-H23 65 µM | OVCAR-4 > 100 µM | SF-268 > 100 µM | SF-295 > 100 µM | SK-MEL-2 34.6 µM | SNB-19 > 100 µM | SNB-75 76.2 µM | SW-620 37.1 µM | U-251 50.7 µM | UO-31 > 100 µM

CC1=Nc2c(O)nc(S)nc2NC(c2ccc(Cl)c(Cl)c2)C1 (stereo not drawn)
inactive: A498 18.9 µM | EKVX 28.9 µM | HCC 2998 17.8 µM | HOP-62 46.3 µM | HOP-92 > 93.1 µM | K562 > 100 µM | M14 16.9 µM | MOLT-4 > 100 µM | NCI-H23 19.4 µM | OVCAR-4 25.5 µM | SF-268 32.2 µM | SF-295 20.1 µM | SK-MEL-2 > 100 µM | SNB-19 > 45 µM | SNB-75 80.9 µM | SW-620 23.5 µM | U-251 17.3 µM | UO-31 29.9 µM

Cn1cc2ccccc2c1-c1nc(F)nc(F)n1
inactive: A498 > 100 µM | EKVX > 100 µM | HCC 2998 > 100 µM | HOP-62 > 100 µM | HOP-92 > 100 µM | K562 > 100 µM | M14 > 100 µM | MOLT-4 55 µM | NCI-H23 > 100 µM | OVCAR-4 > 100 µM | SF-268 > 100 µM | SF-295 > 100 µM | SK-MEL-2 > 100 µM | SNB-19 > 100 µM | SNB-75 92.3 µM | SW-620 > 100 µM | U-251 > 100 µM | UO-31 > 100 µM

CC(C)(C)OC(=O)NCCCCC(NC(=O)OCc1ccccc1)C(N)=O (stereo not drawn)
inactive: DU-145 > 100 µM | EKVX 82.2 µM | HCC 2998 > 100 µM | HOP-62 > 100 µM | K562 > 100 µM | M14 > 100 µM | MOLT-4 > 100 µM | NCI-H23 > 100 µM | NCI/ADR-RES > 100 µM | OVCAR-4 > 100 µM | SF-268 > 100 µM | SF-295 > 100 µM | SK-MEL-2 > 100 µM | SNB-19 > 100 µM | SNB-75 > 100 µM | SW-620 > 100 µM | U-251 > 100 µM | UO-31 > 100 µM

CCC1(Br)C(=O)NC(=O)N(C2CC(O)C(CO)O2)C1N=[N+]=[N-] (stereo not drawn)
inactive: A498 > 100 µM | EKVX > 100 µM | HCC 2998 > 100 µM | HOP-62 > 100 µM | HOP-92 > 100 µM | K562 > 100 µM | M14 > 100 µM | MOLT-4 > 100 µM | NCI-H23 56.8 µM | OVCAR-4 > 100 µM | SF-268 > 100 µM | SF-295 > 100 µM | SK-MEL-2 > 100 µM | SNB-19 > 100 µM | SNB-75 > 100 µM | SW-620 > 100 µM | U-251 > 100 µM | UO-31 > 100 µM

O=Cc1[nH]c2ccccc2c1Br
inactive: A498 16.8 µM | EKVX 35.9 µM | HCC 2998 60.5 µM | HOP-62 18 µM | HOP-92 26.8 µM | K562 15 µM | M14 19.3 µM | MOLT-4 22.5 µM | NCI-H23 30.3 µM | OVCAR-4 31.3 µM | SF-268 22.9 µM | SF-295 38.4 µM | SK-MEL-2 15.2 µM | SNB-19 24.8 µM | SNB-75 19.2 µM | SW-620 34.6 µM | U-251 21.6 µM | UO-31 30.8 µM

COC(=O)C(/C(=N/N)C(=O)Nc1ccc(C)c(C)c1)c1nc2ccc(Cl)cc2nc1O (stereo not drawn)
inactive: A498 > 100 µM | EKVX 74.5 µM | HCC 2998 > 100 µM | HOP-62 > 100 µM | HOP-92 > 100 µM | K562 > 100 µM | M14 > 100 µM | MOLT-4 > 100 µM | NCI-H23 > 100 µM | NCI/ADR-RES > 100 µM | OVCAR-4 > 100 µM | SF-268 > 100 µM | SF-295 > 100 µM | SK-MEL-2 > 100 µM | SNB-75 > 100 µM | SW-620 > 100 µM | U-251 > 100 µM | UO-31 28.4 µM

O=c1[nH]cnc2c(C3OC(CO)C(O)C3O)c[nH]c12 (stereo not drawn)
inactive: DU-145 > 100 µM | EKVX > 100 µM | HCC 2998 > 100 µM | HOP-62 > 100 µM | HOP-92 68.7 µM | K562 > 100 µM | M14 > 100 µM | MOLT-4 > 100 µM | NCI-H23 > 100 µM | OVCAR-4 > 100 µM | SF-268 > 100 µM | SF-295 > 100 µM | SNB-19 > 100 µM | SNB-75 > 100 µM | SW-620 > 100 µM | U-251 > 100 µM | UO-31 > 100 µM
